In patent publication US9055743B2, “Alpha, beta-unsaturated imines” (BAYER INTELLECTUAL PROPERTY GMBH, priority 2010, dated 2015):

Legend:
[1] = tested on: greenhouse red spider mite (Tetranychus urticae); experiment: Tetranychus test; OP-resistant (TETRUR spray treatment); format: in vivo; conditions: 500 g/ha, spray, after 6 days
Procedure, shortened: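 Bean leaf discs infested with all stages of OP-resistant Tetranychus urticae were sprayed with compound in acetone/DMF with alkylaryl polyglycol ether emulsifier, diluted in emulsifier-water. Mortality was scored after 6 days: 100% means all mites killed, 0% none.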

[2] = tested on: larvae of the mustard beetle (Phaedon cochleariae); experiment: Phaedon test (PHAECO spray treatment); format: in vivo; conditions: 500 g/ha, spray, after 7 days
Procedure, shortened: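 Chinese cabbage leaf discs sprayed with compound formulated in acetone/dimethylformamide with alkylaryl polyglycol ether emulsifier, diluted in emulsifier-containing water to the desired concentration. After drying, discs were populated with mustard beetle larvae.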

Boophilus microplus = Boophilus microplus test (BOOPMI injection); format: in vivo; conditions: 20 μg/animal, injection into the abdomen, after 7 days
Method: Boophilus microplus Test (BOOPMI Injection)
(§1) Solvent: Dimethyl Sulphoxide
To produce a suitable preparation of active compound, 10 mg of active compound are mixed with 0.5 ml of solvent and the concentrate is diluted with solvent to the desired concentration. The solution of active compound is injected into the abdomen (Boophilus microplus), and the animals are transferred into dishes and kept in a climatized room. The activity is assessed by […] of fertile eggs.
After 7 days, the effect in % is determined 100% means that none of the ticks has laid any fertile eggs.

[3] = tested on: Boophilus microplus strain Parkhurst, SP-resistant; experiment: Boophilus microplus test (DIP); format: in vivo; conditions: 100 ppm, after 7 days
Method: Boophilus microplus Test (DIP) Test Animals: Adult Fat Females of the Boophilus microplus Strain Parkhurst—SP-Resistant) Solvent: Dimethyl Sulphoxide
10 mg of active compound are dissolved in 0.5 ml of dimethyl sulphoxide. To produce a suitable formulation, the active compound solution is diluted with water to the particular desired concentration.
This active compound preparation is pipetted into tubes. 8-10 ticks are transferred into a further tube provided with holes. The tube is dipped into the active compound preparation, with all the ticks being wetted completely. After the liquid has run off, the ticks are transferred to filter discs in plastic dishes and kept in a climatized room. After 7 days, the activity is checked for deposition of fertile eggs. Eggs whose fertility is not visible from the outside are kept in glass tubes in a climatized cupboard until the larvae have hatched. An activity of 100% means that no tick has laid fertile eggs.

Musca domestica = Musca domestica test (MUSCDO); format: in vivo; conditions: 100 ppm, after 2 days
Method: Musca domestica Test (MUSCDO)
as §1
(§2) To produce a suitable preparation of active compound, 10 mg of active compound are mixed with 0.5 ml of dimethyl sulphoxide and the concentrate is diluted with water to the desired concentration. Vessels containing a sponge treated with the active compound preparation of the desired concentration are populated with adult Musca domestica.
After 2 days, the kill in % is determined 100% means that all flies have been killed; 0% means that none of the flies have been killed.

[4] = tested on: green peach aphid (Myzus persicae); experiment: Myzus test (MYZUPE spray treatment); format: in vivo; conditions: 500 g/ha, spray, after 6 days
Procedure, shortened: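 Chinese cabbage leaf discs infested with all aphid stages were sprayed with compound in acetone/DMF with emulsifier, diluted in emulsifier-containing water. Mortality in % assessed after 6 days (100% = all aphids killed).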

Ctenocephalides felis = Ctenocephalides felis oral test (CTECFE); format: in vivo; conditions: 100 ppm in citrated cattle blood, after two days
Method: Ctenocephalides Felis Oral Test (CTECFE)
Solvent: 1 Part by Weight of Dimethyl Sulphoxide
To produce a suitable preparation of active compound, 10 mg of active compound are mixed with 0.5 ml of dimethyl sulphoxide. Part of the concentrate is diluted with citrated cattle blood, and the desired concentration is prepared.
About 20 unfed adult fleas (Ctenocephalides felis) are placed into a chamber which is closed at the top and bottom with gauze. A metal cylinder whose bottom end is closed with parafilm is placed onto the chamber. The cylinder contains the blood/active compound preparation, which can be taken up by the fleas through the parafilm membrane. After two days, the kill in % is determined 100% means that all fleas have been killed; 0% means that none of the fleas have been killed.

[5] = tested on: Anopheles gambiae (homocygus kdr); experiment: Anopheles test (ANPHGB surface treatment); format: in vivo; conditions: 100 mg/m^2, two hours after contact, exposition 30 minutes
Procedure, shortened: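 Compound dissolved in acetone at 2 mg/ml, pipetted onto glazed tile and dried; adult kdr-homozygous mosquitoes exposed on the tile for 30 min. Knock-down (%) read 2 h and mortality (%) 24 h after contact.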

Lucilia cuprina larvae = experiment: Lucilia cuprina test (LUCICU); format: in vivo; conditions: 100 ppm, after 2 days
Method: Lucilia cuprina Test (LUCICU)
as §1
as §2, with “horsemeat” for “a sponge”, “about 20 Lucilia cuprina larvae.” for “adult Musca domestica.”
After 2 days, the kill in % is determined. 100% means that all larvae have been killed; 0% means that none of the larvae have been killed.

[6] = tested on: cat fleas (Ctenocephalides felis, fully sensitive laboratory strain); experiment: Contact test against fleas in-vitro (CTECFE contact); format: in vivo; conditions: 500 g/ha, after 48 h
Procedure, shortened: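 Test tubes coated from acetone solutions by rotation, top concentration 500 g/ha (500 μg/dm^2) on tube surface, serial 1:5 dilutions. 10-20 CO2-anesthetized adult fleas held at room temperature for 24 and 48 h. Activity scored versus acetone control: knock-down or death of all fleas = 100%.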

[7] = tested on: caterpillars of the army worm (Spodoptera frugiperda); experiment: Spodoptera frugiperda test (SPODFR spray treatment); format: in vivo; conditions: 500 g/ha, spray, after 7 days
Procedure, shortened: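 Maize leaf discs sprayed with compound formulated in acetone/dimethylformamide plus alkylaryl polyglycol ether emulsifier and diluted in water, then infested with Spodoptera frugiperda caterpillars once dry. Mortality scored after 7 days as % activity, where 100% means all caterpillars killed.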

Culex quinquefasciatus = experiment: whole plant or invertebrate; format: in vivo; conditions: 100 mg/m^2, two hours after contact, exposition 30 minutes
Method: Culex Test (CULXFA Surface Treatment) Solvent: Acetone
(§3) To produce a suitable preparation of active compound, the active compound is dissolved in acetone (2 mg/ml). The active compound preparation is pipetted onto a glazed tile and, after drying, adult mosquitoes of the species Culex quinquefasciatus are placed onto the treated tile. The exposition time is 30 minutes.
(§4) Two hours after contact to the treated surface, the knock-down proportion of the test animals in % is determined.
(§5) 24 hours after contact to the treated surface, the mortality in % is determined. Here, 100% means that all mosquitoes have been killed; 0% means that none of the mosquitoes has been killed.

Aedes aegypti = experiment: Aedes test (AEDSAE surface treatment); format: in vivo; conditions: 100 mg/m^2, two hours after contact, exposition 30 minutes
Procedure, shortened: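 Compound dissolved in acetone (2 mg/ml) and dried onto a glazed tile; adult mosquitoes exposed for 30 minutes. Knock-down % scored at 2 hours and mortality % at 24 hours after contact (100% = all killed).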

[8] = tested on: Anopheles funestus strain FUMOZ-R; format: in vivo; conditions: 100 mg/m^2, two hours after contact, exposition 30 minutes
Method: Anopheles Test (ANPHFU Surface Treatment) Solvent: Acetone
as §3, with “Anopheles funestus strain FUMOZ-R (Hunt et al., Med Vet Entomol. 2005 September; 19(3):271-5)” for “Culex quinquefasciatus”
as §4, §5

[9] = logP determination by HPLC on reversed-phase columns (C18), LC-MS neutral; format: physicochemical; conditions: pH 7.8, HPLC on C18, calibration with alkan-2-ones

Structure (SMILES)	activity (spider mites killed) [1]	activity (beetle larvae killed) [2]	activity (100% = none of the ticks has laid any fertile eggs) (Boophilus microplus)	activity (100% = no tick has laid fertile eggs) [3]	activity (kill in %) (Musca domestica)	activity (aphids killed) [4]	activity (kill in %) (Ctenocephalides felis)	knock-down activity [5]	activity (kill in %) (Lucilia cuprina larvae)	activity against cat fleas [6]	activity (caterpillars killed) [7]	knock-down activity (Culex quinquefasciatus)	knock-down activity (Aedes aegypti)	knock-down activity [8]	logP [9]
Cc1ccc(N=C2C(=CSc3ccccc3)C(C)c3ccccc32)cc1 (mixture of isomers) [Example 1-5]	100%	100%	100%	100%	100%	100%	100%	100%	100%	100%	100%				
Cc1ccc(N=C2C(=CSc3ccc(F)cc3)CCc3sccc32)cc1 (mixture of isomers) [Example 1-26]	100%	100%	100%	100%	100%	100%	95%		100%	100%	100%				
Cc1ccc(N=C2C(=CSc3ccc(F)cc3)COc3cc(F)ccc32)cc1 [Example 1-58]	100%	100%				100%		100%		100%	100%	100%	100%		
Cc1ccc(N=C2C(=CSc3ccc(F)cc3)COc3ccccc32)cc1 [Example 1-36]	100%	100%	100%			100%	90%	100%	100%	100%	100%	100%	100%		
Cc1ccc(N=C2C(=CSc3ccc(F)cc3)C3CCC2C3)cc1 (stereo not shown) [Example 1-40]	100%	100%						100%					100%	100%	
Cc1ccc(N=C2CCCCCC2=CSc2ccccc2)cc1 [Example 1-38]								100%		100%			100%		LC-MS (neutral)*: logP = 6.20, (M + H)^+ = 322
Cc1ccc(N=C2C(=CSc3ccc(F)cc3)CCc3occc32)cc1 [Example 1-29]	100%	100%		100%	100%	100%	80%		100%	100%	100%		90%		
Cc1ccc(N=C2C(=CSc3ccc(F)cc3)C(C)c3cccc(F)c32)cc1 (mixture of isomers) [Example 1-27]	100%	100%	100%	100%	100%	100%	100%	100%	100%	100%	100%		100%		
Cc1ccc(N=C2C(=CSc3ccccc3)C3CCC2C3)cc1 (stereo not shown) [Example 1-100]		100%				100%		100%			100%		100%	100%	
CC1C(=CSc2ccccc2)C(=Nc2ccc(Cl)cc2)c2ccccc21 (stereo not shown) [Example 1-11]															LC-MS (neutral)*: logP = 6.38, (M + H)^+ = 376
CCC1C(=CSc2ccc(F)cc2)C(=Nc2ccc(C)cc2)c2ccccc21 (mixture of isomers) [Example 1-37]	100%	100%	100%		90%	100%	100%		100%	100%	100%				
CC(=O)Nc1ccc2c(c1)CCC(=CSc1ccc(F)cc1)C2=Nc1ccc(C)cc1 [Example 1-48]															LC-MS (neutral)*: logP = 4.64, (M + H)^+ = 431.
Cc1ccc(N=C2C(=CSc3ccc(F)cc3)CCCC2=Cc2ccccc2)cc1 [Example 1-56]															LC-MS (neutral)*: logP = 7.01, (M + H)^+ = 414.
Cc1ccc(N=C2C(=CSc3ccc(F)cc3)CCc3cc(C)ccc32)cc1 [Example 1-46]	100%	100%				100%		100%		100%	100%	100%	100%		
Cc1ccc(N=C2C(=CSc3ccc(F)cc3)CCc3cc(F)cc(F)c32)cc1 (mixture of isomers) [Example 1-33]		100%	100%	100%	80%	80%	95%		100%	100%	100%				
